Data: patent publication US12677832B2, “Oxadiazole compounds for controlling or preventing phytopathogenic fungi” (PI INDUSTRIES LTD., priority 2019, dated 2026)

The compounds below were run on Pyricularia oryzae (assay: microbe, parasite or virus in culture). Settings: 168 h, read-out: control.
Format: cell-based
In the case of `O=C(COc1ccc(Br)nc1)c1ccc(-c2noc(C(F)(F)F)n2)cc1` [Compound 49, 2-((6-bromopyridin-3-yl)oxy)-1-(4-(5-(trifluoromethyl)-1,2,4-oxadiazol-3-yl)phenyl)ethan-1-one], the inhibition of growth at 300 ppm is reported as ≥ 70%.
With `O=C(CSc1ccc(C(F)(F)F)cc1)c1ccc(-c2noc(C(F)(F)F)n2)cc1` [Compound 71, 1-(4-(5-(trifluoromethyl)-1,2,4-oxadiazol-3-yl)phenyl)-2-((4-(trifluoromethyl)phenyl)thio)ethan-1-one] the inhibition of growth at 300 ppm was ≥ 70%.
For `O=C(CSCc1ccccc1)c1ccc(-c2noc(C(F)(F)F)n2)cn1` [Compound 118, 2-(benzylthio)-1-(5-(5-(trifluoromethyl)-1,2,4-oxadiazol-3-yl)pyridin-2-yl)ethan-1-one], the inhibition of growth at 300 ppm was ≥ 70%.
With `Cc1ccccc1SCC(=O)c1ccc(-c2noc(C(F)(F)F)n2)cc1` [Compound 66, 2-(o-tolylthio)-1-(4-(5-(trifluoromethyl)-1,2,4-oxadiazol-3-yl)phenyl)ethan-1-one] the inhibition of growth at 300 ppm was ≥ 70%.
For `O=C(CSc1nccs1)c1ccc(-c2noc(C(F)(F)F)n2)cc1` [Compound 73, 2-(thiazol-2-ylthio)-1-(4-(5-(trifluoromethyl)-1,2,4-oxadiazol-3-yl)phenyl)ethan-1-one], the inhibition of growth at 300 ppm was ≥ 70%.
`Cc1cnc([S+]([O-])CC(=O)c2ccc(-c3noc(C(F)(F)F)n3)cc2)s1` (stereo not shown) [Compound 83, 2-((5-methylthiazol-2-yl)sulfinyl)-1-(4-(5-(trifluoromethyl)-1,2,4-oxadiazol-3-yl)phenyl)ethan-1-one] was tested, and the inhibition of growth at 300 ppm was ≥ 70%.
For `CC(C)S(=O)(=O)CC(=O)c1ccc(-c2noc(C(F)(F)F)n2)cc1` [Compound 106, 2-(isopropylsulfonyl)-1-(4-(5-(trifluoromethyl)-1,2,4-oxadiazol-3-yl)phenyl)ethan-1-one], the inhibition of growth at 300 ppm was ≥ 70%.
In the case of `Nc1cc[n+](CC(=O)c2ccc(-c3noc(C(F)(F)F)n3)cc2)cc1` [Compound 148, 4-amino-1-(2-oxo-2-(4-(5-(trifluoromethyl)-1,2,4-oxadiazol-3-yl)phenyl)ethyl)pyridin-1-ium bromide], the inhibition of growth at 300 ppm is reported as ≥ 70%.
With `Cc1cccc(S(=O)(=O)CC(=O)c2ccc(-c3noc(C(F)(F)F)n3)cc2)c1` [Compound 110, 2-(m-tolylsulfonyl)-1-(4-(5-(trifluoromethyl)-1,2,4-oxadiazol-3-yl)phenyl)ethan-1-one] the inhibition of growth at 300 ppm was ≥ 70%.
For `CC(C)(C)SCC(=O)c1ccc(-c2noc(C(F)(F)F)n2)cc1` [Compound 70, 2-(tert-butylthio)-1-(4-(5-(trifluoromethyl)-1,2,4-oxadiazol-3-yl)phenyl)ethan-1-one], the inhibition of growth at 300 ppm was ≥ 70%.

The compounds below were run on Phakopsora pachyrhizi (assay: Phakopsora pachyrhizi Test in Soybean (preventive spray)). Settings: preventive spray on Soybean plants, inoculated one day after treatment, disease severity vs untreated control.
Format: in vivo
Protocol: Example 7: Phakopsora pachyrhizi Test in Soybean Compounds were dissolved in 2% dimethyl sulfoxide/acetone and then mixed with water containing an emulsifier to a calibrated spray volume of 50 mL. This 50 mL spray solution was poured into spray bottles for further applications. To test the preventive activity of compounds, healthy young Soybean plants, raised in the greenhouse, were sprayed with the active compound preparation at the stated application rates inside the spray cabinets using hollow cone nozzles. One day after treatment, the plants were inoculated with a spore suspension containing 2×10^5Phakopsora pachyrhizi conidia. The inoculated plants were then kept in a greenhouse chamber at 22-24° C. temperature and 80-90% relative humidity for disease expression. A visual assessment of the compound's performance was carried out by rating the disease severity (0-100% scale) on treated plants 3, 7, 10 and 15 days after application. Efficacy (% control) of the compounds was calculated by comparing the disease rating in the treatment with the one of the untreated control. The sprayed plants were also assessed for plant compatibility by recording symptoms like necrosis, chlorosis and stunting.
With `O=C(COc1ccc(Br)nc1)c1ccc(-c2noc(C(F)(F)F)n2)cc1` [Compound 49, 2-((6-bromopyridin-3-yl)oxy)-1-(4-(5-(trifluoromethyl)-1,2,4-oxadiazol-3-yl)phenyl)ethan-1-one] the pest or weed control at 500 ppm was ≥ 70%.
With `Cc1ccccc1SCC(=O)c1ccc(-c2noc(C(F)(F)F)n2)cc1` [Compound 66, 2-(o-tolylthio)-1-(4-(5-(trifluoromethyl)-1,2,4-oxadiazol-3-yl)phenyl)ethan-1-one] the pest or weed control at 500 ppm was ≥ 70%.
For `O=C(COc1cc(F)cc(Cl)c1)c1ccc(-c2noc(C(F)(F)F)n2)cc1` [Compound 42, 2-(3-chloro-5-fluorophenoxy)-1-(4-(5-(trifluoromethyl)-1,2,4-oxadiazol-3-yl)phenyl)ethan-1-one], the pest or weed control at 500 ppm was ≥ 70%.
`O=C(COc1ccc(F)nc1)c1ccc(-c2noc(C(F)(F)F)n2)cc1` [Compound 47, 2-((6-fluoropyridin-3-yl)oxy)-1-(4-(5-(trifluoromethyl)-1,2,4-oxadiazol-3-yl)phenyl)ethan-1-one] was tested, and the pest or weed control at 500 ppm was ≥ 70%.
With `O=C(CSc1ccccc1F)c1ccc(-c2noc(C(F)(F)F)n2)cc1` [Compound 65, 2-((2-fluorophenyl)thio)-1-(4-(5-(trifluoromethyl)-1,2,4-oxadiazol-3-yl)phenyl)ethan-1-one] the pest or weed control at 500 ppm was ≥ 70%.
For `Cc1cnc([S+]([O-])CC(=O)c2ccc(-c3noc(C(F)(F)F)n3)cc2)s1` (stereo not shown) [Compound 83, 2-((5-methylthiazol-2-yl)sulfinyl)-1-(4-(5-(trifluoromethyl)-1,2,4-oxadiazol-3-yl)phenyl)ethan-1-one], the pest or weed control at 500 ppm was ≥ 70%.
With `O=C(CNc1ccccc1F)c1ccc(-c2noc(C(F)(F)F)n2)cc1` [Compound 29, 2-((2-fluorophenyl)amino)-1-(4-(5-(trifluoromethyl)-1,2,4-oxadiazol-3-yl)phenyl)ethan-1-one] the pest or weed control at 500 ppm was ≥ 70%.
For `O=C(CS(=O)(=O)c1ccc(F)c(F)c1)c1ccc(-c2noc(C(F)(F)F)n2)cc1` [Compound 96, 2-((3,4-difluorophenyl)sulfonyl)-1-(4-(5-(trifluoromethyl)-1,2,4-oxadiazol-3-yl)phenyl)ethan-1-one], the pest or weed control at 500 ppm was ≥ 70%.
`O=C(CSc1cccc(Cl)c1)c1ccc(-c2noc(C(F)(F)F)n2)cc1` [Compound 54, 2-((3-chlorophenyl)thio)-1-(4-(5-(trifluoromethyl)-1,2,4-oxadiazol-3-yl)phenyl)ethan-1-one] was tested, and the pest or weed control at 500 ppm was ≥ 70%.
With `CC(c1ccccc1)[S+]([O-])CC(=O)c1ccc(-c2noc(C(F)(F)F)n2)cc1` (stereo not shown) [Compound 82, 2-((1-phenylethyl)sulfinyl)-1-(4-(5-(trifluoromethyl)-1,2,4-oxadiazol-3-yl)phenyl)ethan-1-one] the pest or weed control at 500 ppm was ≥ 70%.
For `Cc1csc(SCC(=O)c2ccc(-c3noc(C(F)(F)F)n3)cc2)n1` [Compound 26, 2-((4-methylthiazol-2-yl)thio)-1-(4-(5-(trifluoromethyl)-1,2,4-oxadiazol-3-yl)phenyl)ethan-1-one], the pest or weed control at 500 ppm was ≥ 70%.
With `O=C(CS(=O)(=O)c1cccc(C(F)(F)F)c1)c1ccc(-c2noc(C(F)(F)F)n2)cc1` [Compound 103, 1-(4-(5-(trifluoromethyl)-1,2,4-oxadiazol-3-yl)phenyl)-2-((3-(trifluoromethyl)phenyl)sulfonyl)ethan-1-one] the pest or weed control at 500 ppm was ≥ 70%.
`O=C(CSCc1ccccc1)c1ccc(-c2noc(C(F)(F)F)n2)cc1` [Compound 56, 2-(benzylthio)-1-(4-(5-(trifluoromethyl)-1,2,4-oxadiazol-3-yl)phenyl)ethan-1-one] was tested, and the pest or weed control at 500 ppm was ≥ 70%.
For `O=C(C[S+]([O-])c1ccccc1)c1ccc(-c2noc(C(F)(F)F)n2)cc1` (stereo not shown) [Compound 84, 2-(phenylsulfinyl)-1-(4-(5-(trifluoromethyl)-1,2,4-oxadiazol-3-yl)phenyl)ethan-1-one], the pest or weed control at 500 ppm was ≥ 70%.
In the case of `Cn1ccc(OCC(=O)c2ccc(-c3noc(C(F)(F)F)n3)cc2)n1` [Compound 50, 2-((1-methyl-1H-pyrazol-3-yl)oxy)-1-(4-(5-(trifluoromethyl)-1,2,4-oxadiazol-3-yl)phenyl)ethan-1-one], the pest or weed control at 500 ppm is reported as ≥ 70%.
With `O=C(C[S+]([O-])c1cccc(C(F)(F)F)c1)c1ccc(-c2noc(C(F)(F)F)n2)cc1` (stereo not shown) [Compound 85, 1-(4-(5-(trifluoromethyl)-1,2,4-oxadiazol-3-yl)phenyl)-2-((3-(trifluoromethyl)phenyl)sulfinyl)ethan-1-one] the pest or weed control at 500 ppm was ≥ 70%.
In the case of `COc1ccccc1OCC(=O)c1ccc(-c2noc(C(F)(F)F)n2)cc1` [Compound 11, 2-(2-methoxyphenoxy)-1-(4-(5-(trifluoromethyl)-1,2,4-oxadiazol-3-yl)phenyl)ethan-1-one], the pest or weed control at 500 ppm is reported as ≥ 70%.
`COc1ccc(CS(=O)(=O)CC(=O)c2ccc(-c3noc(C(F)(F)F)n3)cc2)cc1` [Compound 98, 2-((4-methoxybenzyl)sulfonyl)-1-(4-(5-(trifluoromethyl)-1,2,4-oxadiazol-3-yl)phenyl)ethan-1-one] was tested, and the pest or weed control at 500 ppm was ≥ 70%.
With `O=C(CS(=O)(=O)C1CCCCC1)c1ccc(-c2noc(C(F)(F)F)n2)cc1` [Compound 100, 2-(cyclohexylsulfonyl)-1-(4-(5-(trifluoromethyl)-1,2,4-oxadiazol-3-yl)phenyl)ethan-1-one] the pest or weed control at 500 ppm was ≥ 70%.
For `O=C(COc1ccc(Cl)cc1)c1ccc(-c2noc(C(F)(F)F)n2)cc1` [Compound 6, 2-(4-chlorophenoxy)-1-(4-(5-(trifluoromethyl)-1,2,4-oxadiazol-3-yl)phenyl)ethan-1-one], the pest or weed control at 500 ppm was ≥ 70%.
In the case of `COc1ccccc1SCC(=O)c1ccc(-c2noc(C(F)(F)F)n2)cc1` [Compound 63, 2-((2-methoxyphenyl)thio)-1-(4-(5-(trifluoromethyl)-1,2,4-oxadiazol-3-yl)phenyl)ethan-1-one], the pest or weed control at 500 ppm is reported as ≥ 70%.
For `O=C(COc1cccnc1Cl)c1ccc(-c2noc(C(F)(F)F)n2)cc1` [Compound 46, 2-((2-chloropyridin-3-yl)oxy)-1-(4-(5-(trifluoromethyl)-1,2,4-oxadiazol-3-yl)phenyl)ethan-1-one], the pest or weed control at 500 ppm was ≥ 70%.
For `O=C(COc1cccc(Cl)c1)c1ccc(-c2noc(C(F)(F)F)n2)cc1` [Compound 35, 2-(3-chlorophenoxy)-1-(4-(5-(trifluoromethyl)-1,2,4-oxadiazol-3-yl)phenyl)ethan-1-one], the pest or weed control at 500 ppm was ≥ 70%.
With `O=C(COc1ccnc(Cl)c1)c1ccc(-c2noc(C(F)(F)F)n2)cc1` [Compound 44, 2-((2-chloropyridin-4-yl)oxy)-1-(4-(5-(trifluoromethyl)-1,2,4-oxadiazol-3-yl)phenyl)ethan-1-one] the pest or weed control at 500 ppm was ≥ 70%.
`O=C(COc1cccc(F)c1)c1ccc(-c2noc(C(F)(F)F)n2)cc1` [Compound 3, 2-(3-fluorophenoxy)-1-(4-(5-(trifluoromethyl)-1,2,4-oxadiazol-3-yl)phenyl)ethan-1-one] was tested, and the pest or weed control at 500 ppm was ≥ 70%.
`O=C(CN1CCOCC1)c1ccc(-c2noc(C(F)(F)F)n2)cc1` [Compound 136, 2-morpholino-1-(4-(5-(trifluoromethyl)-1,2,4-oxadiazol-3-yl)phenyl)ethan-1-one] was tested, and the pest or weed control at 500 ppm was ≥ 70%.
With `O=C(COc1ccc(Br)cc1)c1ccc(-c2noc(C(F)(F)F)n2)cc1` [Compound 5, 2-(4-bromophenoxy)-1-(4-(5-(trifluoromethyl)-1,2,4-oxadiazol-3-yl)phenyl)ethan-1-one] the pest or weed control at 500 ppm was ≥ 70%.
